The text below walks through data of patent publication US11110098B2, “Methods and medicaments for the treatment of renal cell carcinoma” (University of Kansas, priority 2017, dated 2021).

One assay concerns 786-O cells. The experiment in a line: Western blot of cell lysate, 786-O cells. The assay is classed as cell-based, human. The conditions noted are these: 24 h. An excerpt: Tumors from mouse xenografts and cultured 786-O and Caki-1 cells were homogenized in SDS Laemmli buffer and loaded onto 10% SDS-polyacrylamide agarose gel electrophoresis gels, transferred to nitrocellulose membranes and blocked with 5% milk in TBST^32. Membranes were probed with primary antibody followed by wash and horseradish peroxidase secondary antibody application.

Another assay has as its system Caki-1 cells. Kind of assay: Cell cycle analysis (propidium iodide, FACS), Caki-1 cells. The class given is cell-based, human. The conditions noted are these: 24 h, 10 μM or higher doses. On the procedure: 786-O and Caki-1 cells were incubated for 24 h with 0, 1, 5, 10, 25 or 50 μM of OPC31260, and stained with propidium iodide for analysis by flow cytometry. Cells were rinsed with PBS and trypsinized, and washed twice with PBS. Single-cell suspensions were fixed using pre-chilled 70% ethanol overnight, and subsequently permeabilized with PBS containing 0.1% Triton X-100, 1 mg/ml propidium iodide (Sigma-Aldrich) and 2 mg/ml DNase-free RNase at room temperature. Flow cytometry was done with a FACS Calibur analyzer (Becton Dickinson, Mountain, View, Calif.), capturing 10,000 events for each sample. Results were analyzed with ModFit LT™ software (Verity Software House, Topsham, Me.).

In the case of `Cc1ccccc1C(=O)Nc1ccc(C(=O)N2CCCC(N(C)C)c3ccccc32)cc1` (stereo not drawn) [OPC31260, 5-(dimethylamino)-1-[4-(2-methylbenzamido)benzoyl]-2,3,4,5-tetrahydro-1H-benzazepine], in the assay with 786-O cells, the pCREB levels entry is on record as “dose-dependently reduced” and the pERK1/2 levels result is listed as “dose-dependently reduced”. Moreover, the “cells in G2/M phase” value with Caki-1 cells is 60-70%.
